The values that follow come from patent publication US12679878B2, “CRF2 receptor agonists and their use in therapy” (SANOFI, priority 2020, dated 2026).

≈ marks a conversion by molar mass, not a printed value. Starred links: 1 amine or outer side, 2 acyl side, 3 side chain; linkers in the order of their positions; H or OH if unused. Non-standard residues stand in square brackets, D forms with d. Residues, ends and D or L forms follow the SMILES beside them. Groups on a side chain read outwards from the residue. *: point of attachment. C18 diacid = O=C(O)CCCCCCCCCCCCCCCCC(=O)*; γGlu = O=C(O)[C@H](CCC(=O)[*:2])N[*:1]; Palmitoyl = CCCCCCCCCCCCCCCC(=O)*; AEEA = NCCOCCOCC(=O)O

One data set concerns rat CRF2R α receptor. The data set can be described thus: cAMP agonism at rat CRF2R α receptor in A7R5 rat aortic smooth muscle cells (Example 8). The class given is cell-based. To be noted: cAMP HTRF, A7R5 rat aortic smooth muscle cell line, 0% HSA. The method, boiled down:
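Potency (EC50) is the concentration reaching half-maximal activation, with responses scaled so that 1000 nM urocortin 2 equals 100%. Intracellular cAMP was quantified by homogeneous time-resolved fluorescence at 665/620 nm, 1 h after lysis-buffer reagents. Compound stimulation lasted 30 min at room temperature on 2000 IBMX-treated (2 mM) cells per well in HEPES-buffered HBSS.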
For orientation: TR-FRET usually uses a lanthanide donor and a delayed reading to cut background.

Data set [1] is described as follows: Solubility in buffer systems by UPLC-UV (Example 13). The class given is physicochemical. As to the method: Prior to performing the solubility measurements, the purity of the compounds was determined through UPLC/MS. […] Therefore, solutions from solid samples were prepared in a buffer system with a concentration of 10 mg/mL compound based on the previously determined % purity.
UPLC-UV was performed after 1 hour of gentle agitation from the supernatant, which was obtained after 15 minutes of centrifugation at 2500 RCF (relative centrifugal acceleration). The solubility was determined by the comparison of the UV peak area of a 2 μL-injection of a buffered sample diluted 1:10 with a standard curve of a reference compound with known concentration. The different UV extinction coefficients of sample and reference compound were calculated based on the different amino acid sequences and considered in the concentration calculation.

The target of a further data set is T1, human CRF2α receptor (Homo sapiens, UniProt Q13324).
T1 construct: expressed in transfected cells; host or cells: TeloHEAC
T1 sequence (Q13324 1-411): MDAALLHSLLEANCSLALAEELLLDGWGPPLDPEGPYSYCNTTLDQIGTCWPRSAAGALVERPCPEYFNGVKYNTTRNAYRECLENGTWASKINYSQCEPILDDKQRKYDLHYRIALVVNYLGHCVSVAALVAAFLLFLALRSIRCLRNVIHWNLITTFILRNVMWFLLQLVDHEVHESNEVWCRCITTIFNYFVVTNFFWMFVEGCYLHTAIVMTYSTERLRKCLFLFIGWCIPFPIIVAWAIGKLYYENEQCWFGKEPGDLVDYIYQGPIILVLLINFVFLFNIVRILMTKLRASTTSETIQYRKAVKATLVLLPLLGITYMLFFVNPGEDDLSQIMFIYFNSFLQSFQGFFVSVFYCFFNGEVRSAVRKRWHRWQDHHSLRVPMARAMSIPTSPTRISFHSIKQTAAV
The data set can be described thus: cAMP agonism at human CRF2 α receptor in TeloHEAC cells (Example 7). The class given is cell-based. As to conditions: cAMP HTRF, TeloHEAC cells stably expressing human CRF2 α, 0% HSA; read-out: EC50 [nM], 0% HSA. The method in brief:
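HTRF ratio 665/620 nm, read 1 h after lysis reagents, reports cAMP. Cells: thawed stocks, 2000/well, 30 min RT with compound in HBSS, 20 mM HEPES, 0 or 0.1% HSA, 2 mM IBMX. Activity normalised to UCN2 1000 nM = 100%; EC50 from half-maximal activation.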

The target in the next data set is T2, CRF1R receptor (Homo sapiens, UniProt P34998).
T2 construct: host or cells: CHO-K1 clone 2
T2 sequence (P34998 24-415): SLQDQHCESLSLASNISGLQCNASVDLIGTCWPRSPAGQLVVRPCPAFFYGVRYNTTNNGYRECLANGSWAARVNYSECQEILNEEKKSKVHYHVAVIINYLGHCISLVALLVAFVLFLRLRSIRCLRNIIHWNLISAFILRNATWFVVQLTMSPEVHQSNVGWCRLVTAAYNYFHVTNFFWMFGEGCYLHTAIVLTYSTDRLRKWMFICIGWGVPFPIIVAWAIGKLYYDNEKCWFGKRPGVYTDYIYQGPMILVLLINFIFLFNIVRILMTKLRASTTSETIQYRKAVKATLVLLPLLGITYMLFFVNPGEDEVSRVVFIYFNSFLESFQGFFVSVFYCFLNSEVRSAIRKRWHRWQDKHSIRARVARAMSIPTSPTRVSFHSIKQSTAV
The data set can be described thus: cAMP activity at anti-target CRF1R, CRF1R-overexpression CHO cell line (Example 9). The class given is cell-based. As to conditions: CRF1R-overexpression CHO cell line; for EC50: 0% HSA; for Emax: read-out: Emax (%). The method, boiled down: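 Using thawed CRF1R-overexpressing CHO cells at 2000 per well, compound is applied for 30 min at RT in HBSS/HEPES buffer with IBMX. Cellular cAMP content is determined via HTRF, and percent activity is calculated against 1000 nM UCN2 defined as 100%.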

[2] abbreviates: pH 7.4, Solubility in Buffer C [mg/ml].

A word on the EC50: it is the concentration giving half of the maximal effect. The solubility is how much of the substance goes into solution per volume. As for `CCCCCCCCCCCCCCCC(=O)N[C@@H](CCC(=O)NCCCC[C@H](NC(=O)[C@H](CC(C)C)NC(=O)[C@H](CCCCN)NC(=O)[C@@H](NC(=O)[C@@H]1CCCN1C(=O)[C@H](NC(=O)[C@H](CC(=O)O)NC(=O)[C@H](CC(C)C)NC(=O)[C@H](CO)NC(=O)[C@H](CC(C)C)NC(=O)[C@@H](NC(=O)[C@@H](N)[C@@H](C)CC)C(C)C)C(C)C)[C@@H](C)O)C(=O)N[C@@H](CCC(N)=O)C(=O)N[C@@H](CCCCN)C(=O)N[C@@H](CC(C)C)C(=O)N[C@@H](CC(C)C)C(=O)N[C@@H](CCCCN)C(=O)N[C@@H](CCC(N)=O)C(=O)N[C@@H](CCC(=O)O)C(=O)N[C@@H](CCCNC(=N)N)C(=O)N[C@@H](CCC(N)=O)C(=O)N[C@@H](CCCNC(=N)N)C(=O)N[C@@H](CCCCN)C(=O)N[C@@H](CCC(=O)O)C(=O)N[C@@H](CCCNC(=N)N)C(=O)N[C@@H](CCC(=O)O)C(=O)N[C@@H](CCC(N)=O)C(=O)N[C@@H](C)C(=O)N[C@@H](CCC(=O)O)C(=O)N[C@@H](CCCCN)C(=O)N[C@@H](CC(N)=O)C(=O)N[C@@H](CCCCN)C(=O)N[C@@H](CCCNC(=N)N)C(=O)N[C@H](C(=O)N[C@@H](CC(C)C)C(=O)N[C@@H](CCC(=O)O)C(=O)N[C@@H](CCCNC(=N)N)C(=O)N[C@H](C(N)=O)C(C)C)[C@@H](C)CC)C(=O)O` [compound 18] (H-IVLSLD[dV]PTKLK([γGlu-Palmitoyl])QKLLKQERQRKEREQAEKNKRILERV-NH2), the EC50 in the data set with rat CRF2R α receptor was 0.02 nM; at human CRF2α receptor, 0.03 nM. Also, the solubility at 1 h in data set [1] (pH 4.5, Solubility in Buffer A [mg/ml]) is over 10200 µg/mL; in data set [1] (pH 4.5, Solubility in Buffer B [mg/ml]) it was over 9300 µg/mL.
One may read the Emax as the size of the effect at its maximum, as opposed to the concentration needed. Turning to `CCCCCCCCCCCCCCCC(=O)N[C@@H](CCC(=O)NCCCC[C@H](NC(=O)[C@H](CC(C)C)NC(=O)[C@H](CCCCN)NC(=O)[C@@H](NC(=O)[C@@H]1CCCN1C(=O)[C@H](NC(=O)[C@H](CC(=O)O)NC(=O)[C@H](CC(C)C)NC(=O)[C@H](CO)NC(=O)[C@H](CC(C)C)NC(=O)[C@@H](NC(=O)[C@@H](N)[C@@H](C)CC)C(C)C)C(C)C)[C@@H](C)O)C(=O)N[C@@H](CCC(N)=O)C(=O)N[C@@H](CCCCN)C(=O)N[C@@H](CC(C)C)C(=O)N[C@@H](CC(C)C)C(=O)N[C@@H](CCCCN)C(=O)N[C@@H](CCC(N)=O)C(=O)N[C@@H](CCC(=O)O)C(=O)N[C@@H](CCCNC(=N)N)C(=O)N[C@@H](CCC(N)=O)C(=O)N[C@@H](CCCNC(=N)N)C(=O)N[C@@H](CCCCN)C(=O)N[C@@H](CCC(=O)O)C(=O)N[C@@H](CCCNC(=N)N)C(=O)N[C@@H](CCC(=O)O)C(=O)N[C@@H](CCC(N)=O)C(=O)N[C@@H](C)C(=O)N[C@@H](CCC(=O)O)C(=O)N[C@@H](CCCCN)C(=O)N[C@@H](CC(N)=O)C(=O)N[C@H](C(=O)N[C@@H](CCCNC(=N)N)C(=O)N[C@H](C(=O)N[C@@H](CC(C)C)C(=O)N[C@@H](CCC(=O)O)C(=O)N[C@@H](CCCNC(=N)N)C(=O)N[C@H](C(N)=O)C(C)C)[C@@H](C)CC)C(C)C)C(=O)O` [compound 32] (H-IVLSLD[dV]PTKLK([γGlu-Palmitoyl])QKLLKQERQRKEREQAEKNVRILERV-NH2), the results for the concentration giving a half-maximal response (EC50) on CRF1R receptor and on human CRF2α receptor were over 1000 nM and 0.01 nM, respectively. Moreover, on CRF1R receptor, the Emax is 27%. This compound displayed a solubility at 1 h in data set [1] (setting [2]) of 8600 µg/mL (≈ 1730 µM).
As to `CC[C@H](C)[C@H](N)C(=O)N[C@H](C(=O)N[C@@H](CC(C)C)C(=O)N[C@@H](CO)C(=O)N[C@@H](CC(C)C)C(=O)N[C@@H](CC(=O)O)C(=O)N[C@H](C(=O)N1CCC[C@H]1C(=O)N[C@H](C(=O)N[C@@H](CCCCN)C(=O)N[C@@H](CC(C)C)C(=O)N[C@@H](CCCCNC(=O)COCCOCCNC(=O)COCCOCCNC(=O)CC[C@H](NC(=O)CCCCCCCCCCCCCCCCC(=O)O)C(=O)O)C(=O)N[C@@H](CCC(N)=O)C(=O)N[C@H](C(=O)N[C@@H](CC(C)C)C(=O)N[C@@H](CC(C)C)C(=O)N[C@@H](CCC(=O)O)C(=O)N[C@@H](CCC(N)=O)C(=O)N[C@@H](CCC(=O)O)C(=O)N[C@@H](CCCNC(=N)N)C(=O)N[C@@H](CCC(N)=O)C(=O)N[C@@H](CCCNC(=N)N)C(=O)N[C@@H](CCCCN)C(=O)N[C@@H](CCC(=O)O)C(=O)N[C@@H](CCCNC(=N)N)C(=O)N[C@@H](CCC(N)=O)C(=O)N[C@@H](CCC(N)=O)C(=O)N[C@@H](C)C(=O)N[C@@H](CCC(=O)O)C(=O)N[C@H](C(=O)N[C@@H](CC(N)=O)C(=O)N[C@@H](C)C(=O)N[C@@H](CCC(N)=O)C(=O)N[C@H](C(=O)N[C@@H](CC(C)C)C(=O)N[C@@H](C)C(=O)N[C@@H](CCC(N)=O)C(=O)N[C@H](C(N)=O)C(C)C)[C@@H](C)CC)[C@@H](C)O)[C@@H](C)CC)[C@@H](C)CC)C(C)C)C(C)C` [compound 39] (H-IVLSLDVPIKLK([AEEA-AEEA-γGlu-C18 diacid])QILLEQERQRKERQQAETNAQILAQV-NH2), the EC50 on CRF1R receptor is over 1000 nM; with rat CRF2R α receptor, 2.04 nM; on human CRF2α receptor it was 0.65 nM. Also, the Emax at CRF1R receptor worked out at 13.3%. For the same compound, the solubility at 1 h in data set [1] (setting [2]) was 10300 µg/mL (≈ 2000 µM).
For the compound `CC[C@H](C)[C@H](N)C(=O)N[C@H](C(=O)N[C@@H](CC(C)C)C(=O)N[C@@H](CO)C(=O)N[C@@H](CC(C)C)C(=O)N[C@@H](CC(=O)O)C(=O)N[C@H](C(=O)N1CCC[C@H]1C(=O)N[C@H](C(=O)N[C@@H](CCCCN)C(=O)N[C@@H](CC(C)C)C(=O)N[C@@H](CCCCNC(=O)COCCOCCNC(=O)COCCOCCNC(=O)CC[C@H](NC(=O)CCCCCCCCCCCCCCCCC(=O)O)C(=O)O)C(=O)N[C@@H](CCC(N)=O)C(=O)N[C@H](C(=O)N[C@@H](CC(C)C)C(=O)N[C@@H](CC(C)C)C(=O)N[C@@H](CCC(=O)O)C(=O)N[C@@H](CCC(N)=O)C(=O)N[C@@H](C)C(=O)N[C@@H](CCCCN)C(=O)N[C@@H](CCC(N)=O)C(=O)N[C@@H](CCCCN)C(=O)N[C@@H](CCCCN)C(=O)N[C@@H](CC(C)C)C(=O)N[C@@H](CCCNC(=N)N)C(=O)N[C@@H](C)C(=O)N[C@@H](CCC(N)=O)C(=O)N[C@@H](C)C(=O)N[C@@H](CCC(=O)O)C(=O)N[C@H](C(=O)N[C@@H](CC(N)=O)C(=O)N[C@H](C(=O)N[C@@H](CCCNC(=N)N)C(=O)N[C@H](C(=O)N[C@@H](CC(C)C)C(=O)N[C@@H](CCC(=O)O)C(=O)N[C@@H](CCCNC(=N)N)C(=O)N[C@H](C(N)=O)C(C)C)[C@@H](C)CC)C(C)C)[C@@H](C)O)[C@@H](C)CC)[C@@H](C)CC)C(C)C)C(C)C` [compound 43] (H-IVLSLDVPIKLK([AEEA-AEEA-γGlu-C18 diacid])QILLEQAKQKKLRAQAETNVRILERV-NH2; N-terminus assumed), the concentration for a half-maximal effect (EC50) with rat CRF2R α receptor was 11.5 nM; on human CRF2α receptor, 1.9 nM. Moreover, the solubility at 1 h in data set [1] (setting [2]) is over 9800 µg/mL.
